This is an account of results in patent US9260504B2, “N- and C-terminal substituted antagonistic analogs of GH-RH” (University of Miami, priority 2008, dated 2016).

Marks after values point to notes of the source that are not given here.

Experiment [1] concerns rat anterior pituitary adenylate cyclase. The conditions noted are these: cited from earlier work.
Another experiment concerns GH secretion. The note with it: cited from earlier work.
The test system of experiment [2] is PC-3 human hormone-independent prostate cancer. Nature of the experiment: PC-3 human prostate cancer xenografts in nude mice, Experiment 1. The format is in vivo. The note with it: 10 μg/day s.c., daily for 35 days; means±S.E. The method, then: (§1) Male nude mice were implanted s.c. with 3 mm^3 pieces of PC-3 human hormone-independent prostate cancer tissue on both flanks. When tumors reached a volume of approx. 50 mm^3, the mice were divided into 4 experimental groups with 8 to 10 animals in each group and received single daily injections for 35 days as follows: 1. Control (vehicle solution); 2. JMR-132 (10 μg/day s.c.); 3. Peptide 1109 (10 μg/day s.c.); 4. Peptide 11111 (10 μg/day s.c.); Tumor volumes were measured once a week. The experiment was ended on day 35 by sacrificing the mice under Isoflurane anesthesia. Resulting tumors were cleaned, weighed, and snap-frozen until further analyses. Statistical analyses of the measurement results were done by two-tailed t-test, p<0.05 being considered significant. Data are presented as the means±S.E.
On the technique in general: A xenograft is tissue or cells of one species grown in another, often human tumour cells in immunodeficient mice.

Experiment [3] shares this test system. Nature of the experiment: PC-3 human prostate cancer xenografts in nude mice, Experiment 2. In kind it is in vivo. The method, then:
as §1
Experiment 2 was similar to Experiment 1. Experiment 2 was started when PC-3 tumors had grown to approximately 50 mm^3 in volume. At this time, the animals were divided into 5 experimental groups with 8 animals in each group, and received single daily injections for 14 days as follows: 1. Control (vehicle solution); 2. JMR-132 (10 μg/day s.c.); 3. Peptide 1109 (5 μg/day s.c.); 4. Peptide 11109 (5 μg/day s.c.); 5. Peptide 11109 (2 μg/day s.c.). Further details of Experiment 2 are the same as for Experiment 1

For experiment [4], the system named is H-460 human non-small cell lung cancer. Nature of the experiment: H-460 human non-SCLC xenografts in nude mice, Experiment 1. In kind it is in vivo. The conditions noted are these: 10 μg/day s.c., 28 days; means±S.E. The method, then: Male nude mice were implanted s.c. with 3 mm^3 pieces of H-460 human non-SCLC tumor tissue on both flanks. When tumors had grown to a mean volume of approximately 90 mm^3, the mice were randomly assigned into 4 experimental groups with 10 animals in each group and received single daily injections for 28 days as follows: 1. Control (vehicle solution); 2. JMR-132 (10 μg/day s.c.); 3. Peptide 1109 (10 μg/day s.c.); 4. Peptide 11111 (10 μg/day s.c.). Tumor volumes were measured once a week. The experiment was ended on day 28 by sacrificing the mice under Isoflurane anesthesia. Resulting tumors were cleaned, weighed, and snap-frozen until further analyses. Statistical analyses of the measurement results were done by two-tailed t-test, p<0.05 being considered significant. Data are presented as the means±S.E.

Experiment [5] relates to MDA-MB-231 human estrogen independent breast cancer. Nature of the experiment: MDA-MB-231 human estrogen independent breast cancer xenografts in nude mice. In kind it is in vivo. The note with it: 5 μg/day s.c., 28 days. The procedure:
Female nude mice were xenografted s.c. with MDA-MB-231 tumor tissue from donor animals. When tumors had grown to a mean volume of approximately 50 mm^3, the mice were randomly assigned into 2 experimental groups with 10 animals in each group and received single daily injections for 28 days as follows: 1. Control (vehicle solution); 2. Peptide 1109 (5 μg/day s.c.). Tumor volumes were measured once a week. The experiment was ended on day 28 by sacrificing the mice under Isoflurane anesthesia. Resulting tumors were cleaned, weighed, and snap-frozen until further analyses. Statistical analyses of the measurement results were done by two-tailed t-test, p<0.05 being considered significant.

Experiment [6] relates to NCI-N87 human gastric cancer. Nature of the experiment: NCI-N87 human gastric cancer xenografts in nude mice. The conditions noted are these: 10 μg/day s.c. The format is in vivo. The method, then:
NCI-N87 cancers were transplanted s.c. into both flank areas of 30 female nude mice. The mice were randomly assigned into 4 experimental groups with 6 to 9 animals in each group and received single daily injections for 77 days as follows: 1. Control (vehicle solution); 2. JMR-132 (10 μg/day s.c.); 3. Peptide 1109 (10 μg/day s.c.); 4. Peptide 11479 (10 μg/day s.c.). Tumor volumes were measured once a week. The experiment was ended on day 77 by sacrificing the mice under Isoflurane anesthesia. Resulting tumors were cleaned, weighed, and snap-frozen until further analyses. Statistical analyses of the measurement results were done by two-tailed t-test, p<0.05 being considered significant. Data are presented as the means±S.E.

For experiment [7], the system named is SK-Hep-1 human hepatocellular cancer. Nature of the experiment: SK-Hep-1 human hepatocellular cancer xenografts in nude mice. The note with it: for Tumor volume (mm^3) on day 135: means±S.E.; for Tumor weights (mg): tumors removed at autopsy. In kind it is in vivo. The method, then:
SK-Hep-1 cancers were transplanted s.c. into both flank areas of 66 female nude mice, and allowed to grow for 47 days before starting the treatment with GH-RH antagonists. The mice were randomly assigned into 4 experimental groups with 8 animals in each group and received single daily injections for 135 days as follows: 1. Control (vehicle solution); 2. JMR-132 (10 μg/day s.c.); 3. Peptide 1109 (5 μg/day s.c.); 4. Peptide 1109 (10 μg/day s.c.). Tumor volumes were measured once a week. The experiment was ended on day 135 by sacrificing the mice under Isoflurane anesthesia. Resulting tumors were cleaned, weighed, and snap-frozen until further analyses. Statistical analyses of the measurement results were done by two-tailed t-test, p<0.05 being considered significant. Data are presented as the means±S.E.

Consider “[Ac-Tyr^1,D-Arg^2]hGH-RH(1-29)NH2 [standard antagonist]”, for which the “Effect on activation of adenylate cyclase by hGH-RH(1-29)NH2” value in experiment [1] is reported as “prevent the activation of rat anterior pituitary adenylate cyclase”. The “Effect on GH levels” value in the experiment with GH secretion (a patient with acromegaly) is on record as “reduced GH levels”. In addition, the “Effect on nocturnal GH secretion” value in the experiment with GH secretion (normal subjects, 400 μg/kg) is “eliminated nocturnal GH secretion”.

On to “[PhAc^0-Tyr^1, D-Arg^2, Cpa^6, Ala^8, Har^9, Tyr(Me)^10, His^11, Abu^15, Glu^17, His^20, Nle^27, D-Arg^28, Har^29]hGH-RH(1-29)NH2 [Peptide 1109]”, for which the “Tumor growth after 5 weeks (%)” value in experiment [2] is 1502 ± 405%. In addition, in experiment [3] (5 μg/day s.c., 14 days), the “Tumor growth after 2 weeks (%)” value was 311%. For the same substance, the “Inhibition of PC-3 tumor growth compared with reference peptide JMR-132” value in experiment [3] (Peptide 1109 5 μg/day, Peptide 11109 5 and 2 μg/day, JMR-132 10 μg/day, 14 days) is “inhibited the growth of PC-3 tumors more potently than reference peptide JMR-132”. In addition, the “Inhibition (%)” value in experiment [3] (tumor growth after 2 weeks, 5 μg/day s.c.) is recorded as 56.58%. Besides, the “Tumor growth after 4 weeks (%)” value in experiment [4] is given as 1042 ± 181%. Further, the “Inhibition of the growth of MDA-MB-231 human breast cancers” value in experiment [5] is “about 75%”. For the same substance, the “Number of regressing tumors” value in experiment [6] (77 days) amounted to 6. In addition, the “Tumor growth after 77 days (%)” value in experiment [6] (77 days, means±S.E.) is on record as 225 ± 59 %. Besides, in experiment [6] (day 77, means±S.E.), the “Tumor weights” value was 170 ± 52 mg. Besides, the “Tumor doubling time” value in experiment [6] (calculated without the regressing tumors) is given as 93.6 ± 30.7 days. Besides, the “Tumors with total regression” value in experiment [7] (5 μg/day s.c., 135 days) amounted to 5; in experiment [7] (10 μg/day s.c., 135 days), 7. In addition, the “Tumor volume (mm^3) on day 135” value in experiment [7] (5 μg/day s.c., 135 days) is on record as 271 ± 98 mm^3; in experiment [7] (10 μg/day s.c., 135 days), 200 ± 123* mm^3. The “Tumor weights (mg)” value in experiment [7] (5 μg/day s.c.) is 565 ± 115 (6) mg; in experiment [7] (10 μg/day s.c.), 605 ± 281 (4) mg. In experiment [7] (5 μg/day vs JMR-132 10 μg/day, 135 days), the “Inhibition of SK-Hep-1 hepatic cancer growth compared with reference peptide JMR-132” value was “more potently inhibited the growth of SK-Hep-1 hepatic cancers than the reference peptide JMR-132”.
